Results taken from US20190374557A1, “Cyclobutyl (S)-2-[[[(R)-2-(6-aminopurin-9-yl)-1-methyl-ethoxy]methyl-phenoxy-phosphoryl]amino]-propanoates, and production process and application thereof” (ALLA CHEM, LLC, priority 2017, published 2019).

What was measured:
[1] = test system: HIV strain NL4.3 carrying a gene encoding the green fluorescent protein (NL4.3-GFP); conditions: SupT1 cells
[2] = test system: HIV strain NL4.3 carrying a gene encoding the green fluorescent protein (NL4.3-GFP); assay: microbe, parasite or virus in culture; conditions: Human immunodeficiency virus 1, SUP-T1, 45 h, read-out: Activity (EC50)
in vitro = conditions: human, uninfected SupT1 cells (T-lymphocyte line)

With `CC(C)OC(=O)[C@H](C)N[P@](=O)(CO[C@H](C)Cn1cnc2c(N)ncnc21)Oc1ccccc1` [TAF, tenofovir alafenamide] as the molecule, how does the “selectivity index SI = CC50/EC50” value [1] read?
The value was 2857.

What about the EC50 [2] of the same molecule?
The EC50 was 35 nM.

And the CC50 (in vitro)?
The CC50 was over 100000 nM.
